Source: patent US20050192337A1, “Processes and polymorphs of diaryl-indolone galr3 antagonists” (priority 2002, published 2005)

What was measured:
Format in all cases: physicochemical
[1] = Stress studies of Compound I (heat stress, XRPD of resulting solid); details: for Stability to heat stress: Table 7
Procedure: (§1) X-ray powder diffraction (XRPD) analyses were performed using a Shimadzu XRD-6000 X-ray powder diffractometer using Cu Kα radiation. The instrument was equipped with a fine focus X-ray tube. The tube voltage and amperage were set to 40 kV and 40 mA, respectively. The divergence and scattering slits were set at 1° and the receiving slit was set at 0.15 mm. Diffracted radiation was detected by a NaI scintillation detector. A theta-two theta continuous scan at 3°/min (0.4 sec/0.02° step) from 2.5 to 40° 2θ was used. A silicon standard was analyzed to check the instrument alignment. Data were collected and analyzed using XRD-6000 v. 4.1. Samples were prepared for analysis by placing them in a silicon sample holder or aluminum holder with silicon insert. X-ray powder diffraction (XRPD) analyses were also performed using an Inel XRG-3000 diffractometer equipped with a CPS (Curved Position Sensitive) detector with a 2θ range of 120°. Real time data were collected using Cu-Kα radiation starting at approximately 4° 2θ at a resolution of 0.03° 2θ. The tube voltage and amperage were set to 40 kV and 30 mA, respectively. The monochromator slit was set at 5 mm by 80 μm. […] Samples were prepared for analysis by packing them into thin-walled glass capillaries. Each capillary was mounted onto a goniometer head that is motorized to permit spinning of the capillary during data acquisition. The samples were analyzed for 5 min. Instrument calibration was performed using a silicon reference standard.
(§2) All three polymorphs are also non-hygroscopic, as indicated by the data in Table 8.

[2] = Moisture sorption/desorption (moisture balance) of Compound I forms
[3] = Slurry experiments on Compound I crystalline forms (XRPD); details: for Conversion upon stirring as a slurry in an organic solvent: a few hours to several days, Tables 9 and 10
Procedure: as §1, §2
Form I can be obtained in a straightforward fashion by stirring a slurry of any solid form of Compound I, and particularly Form II or III, in an organic solvent in which Compound I is partially soluble, for several hours until the material converts completely to Form I. Formation of Form I can be analyzed through DSC or, preferably, XRPD analysis. In one embodiment of the invention, a slurry of solid Compound I in an organic solvent is generated by cooling a hot, saturated solution of Compound I in an organic solvent, allowing crystals to form, then stirring the resulting slurry for several hours or a few days until the solid material converts substantially or completely to Form I. In a preferred embodiment, the hot, saturated solution of Compound I is generated in situ in the one-pot synthetic process described above. Form I can also be prepared by slurrying for several hours Compound I, Form II in a saturated methanol solution or in an appropriate solvent.

[4] = Differential scanning calorimetry, relative stability of forms on heating; details: high temperatures, DSC 1° C./min
Procedure: Differential scanning calorimetry (DSC) was performed using a TA Instruments differential scanning calorimeter 2920. The sample was placed into an aluminum DSC pan, and the weight accurately recorded. The pan was covered with a lid and left uncrimped. Each sample was equilibrated at 25° C. and heated under a nitrogen purge at a rate of 10 or 20° C./min, up to a final temperature of 270° C. or 350° C. Samples were also heated at 1 or 5° C./min up to 150° C.

[5] = Interconversion experiments of Compound I (slurry of mixed forms, XRPD); details: 25° C.
Procedure: as §1, with “Each capillary was mounted onto a goniometer head that is motorized to permit spinning of the capillary during data acquisition.” left out, “Instrument calibration was performed using a silicon reference standard.” left out

Moisture Balance Results: total weight gain at 95% RH [2] | Result (XRPD form after stress) ([1]; 80 C., 4 days) | Stability to heat stress [1] | Moisture Balance Results: weight loss at 5% RH ([2]; 5% RH) | XRPD Results after slurry ([3]; MeOH, ambient, 11 d) | Conversion upon stirring as a slurry in an organic solvent [3] | Hygroscopicity [2] | Compound | also measured
0.3% total weight gain at | – | – | – | – | – | – | O=C1C(=Nc2cccc(C(F)(F)F)c2)c2ccccc2N1c1ccccc1 (racemic) [amorphous, 1-phenyl-3-[[3-(trifluoromethyl)phenyl]imino]-1H-indol-2-one] | Result (XRPD form after stress) ([1]; 60 C./17 hours): III (LC); Moisture Balance Results: weight gain at 5% RH ([2]; 5% RH): <0.1% weight gain at 5% RH,; XRPD Results on solid after moisture balance run ([2]; after moisture balance run): amorphous
<0.1% total weight gain at | II (PO) + peak@5° 2θ | relatively stable to heat stress | <0.1% weight loss at 5% RH, | I (PO) | convert to Form I | – | O=C1/C(=N\c2cccc(C(F)(F)F)c2)c2ccccc2N1c1ccccc1 [Form II, 1-phenyl-3-[[3-(trifluoromethyl)phenyl]imino]-1H-indol-2-one] | XRPD Results after slurry ([3]; Experiment 3, MeOH, 25° C., 1 hour): II + I (minor); XRPD Results after slurry ([3]; Experiment 4, MeOH, 25° C., 1 hour): I + II; XRPD Results after slurry ([3]; Experiment 4, MeOH, 25° C., 1 hour 20 min): I + II; XRPD Results after slurry ([3]; Experiment 4, MeOH, 25° C., 1 hour 40 min): I + II (minor); Relative stability of forms [4]: more stable than Form I
<0.1% total weight gain at | – | – | <0.1% weight loss at 5% RH, | I (PO) | – | – | O=C1/C(=N\c2cccc(C(F)(F)F)c2)c2ccccc2N1c1ccccc1 [Compound I, 1-phenyl-3-[[3-(trifluoromethyl)phenyl]imino]-1H-indol-2-one] | –
– | III (SS) | relatively stable to heat stress | <0.1% weight loss at 5% RH, | – | convert to Form I | nonhygroscopic | O=C1C(=Nc2cccc(C(F)(F)F)c2)c2ccccc2N1c1ccccc1 (racemic) [Form III, 1-phenyl-3-[[3-(trifluoromethyl)phenyl]imino]-1H-indol-2-one] | Result (XRPD form after stress) ([1]; 60 C., 4 days): III (SS); Result (XRPD form after stress) ([1]; 70 C., 4 days): III (SS); Moisture Balance Results: total weight gain at 95% RH ([2]; listed as III): <0.1% total weight gain at
– | – | relatively stable to heat stress | – | – | remains unchanged | nonhygroscopic | O=C1/C(=N\c2cccc(C(F)(F)F)c2)c2ccccc2N1c1ccccc1 [Form I, 1-phenyl-3-[[3-(trifluoromethyl)phenyl]imino]-1H-indol-2-one] | Relative stability of forms [5]: more stable than either Form II or III
